Source: the NIST ThermoML archive (doi:10.1021/je700152c)

Experiment: molar heat capacity at saturation pressure

CCCCn1cc[n+](C)c1.Cc1ccc(S(=O)(=O)[O-])cc1 [1-butyl-3-methylimidazolium tosylate]
Settings	molar heat capacity [J/K/mol]
283.38 K, Crystal 1	400.74
283.57 K, Crystal 1	401.36
284.36 K, Metastable crystal	414.71
285.22 K, Crystal 1	405.4
285.23 K, Crystal 1	405.09
285.41 K, Crystal 1	405.71
286.18 K, Metastable crystal	418.44
287.05 K, Crystal 1	409.74
287.07 K, Crystal 1	409.12
287.24 K, Crystal 1	410.37
288 K, Metastable crystal	422.47
288.87 K, Crystal 1	414.71
288.9 K, Crystal 1	414.09
289.06 K, Crystal 1	415.64
289.81 K, Metastable crystal	426.82
290.68 K, Crystal 1	419.06
290.72 K, Crystal 1	418.75
290.87 K, Crystal 1	419.99
291.62 K, Metastable crystal	431.16
292.49 K, Crystal 1	423.71
292.53 K, Crystal 1	423.4
292.67 K, Crystal 1	424.02
293.42 K, Metastable crystal	435.51
294.29 K, Crystal 1	427.13
294.33 K, Crystal 1	428.06
294.47 K, Crystal 1	427.44
295.21 K, Metastable crystal	439.86
296.09 K, Crystal 1	431.47
296.13 K, Crystal 1	432.72
296.27 K, Crystal 1	432.09
296.99 K, Metastable crystal	445.13
297.87 K, Crystal 1	436.13
297.92 K, Crystal 1	437.06
298.05 K, Crystal 1	436.75
298.77 K, Metastable crystal	450.1
299.66 K, Crystal 1	440.79
299.71 K, Crystal 1	442.65
299.83 K, Crystal 1	442.03
300.21 K, Crystal 1	440.48
300.54 K, Metastable crystal	455.38
301.54 K, Crystal 1	446.68
301.6 K, Crystal 1	447.93
301.72 K, Crystal 1	447.62
302.1 K, Crystal 1	445.44
302.41 K, Metastable crystal	461.89
303.54 K, Crystal 1	452.58
303.6 K, Crystal 1	453.2
303.71 K, Crystal 1	453.82
304.1 K, Crystal 1	451.03
304.39 K, Metastable crystal	469.03
305.52 K, Crystal 1	458.79
305.59 K, Crystal 1	460.34
305.69 K, Crystal 1	460.03
306.09 K, Crystal 1	457.24
306.36 K, Metastable crystal	476.79
307.5 K, Crystal 1	465.93
307.57 K, Crystal 1	467.79
307.67 K, Crystal 1	467.17
308.07 K, Crystal 1	463.76
308.32 K, Metastable crystal	485.8
309.47 K, Crystal 1	473.69
309.54 K, Crystal 1	474.93
309.64 K, Crystal 1	475.24
310.04 K, Crystal 1	471.52
310.26 K, Metastable crystal	496.04
311.42 K, Crystal 1	482.69
311.49 K, Crystal 1	484.55
311.59 K, Crystal 1	484.24
311.76 K, Metastable crystal	501.63
311.99 K, Crystal 1	479.59
313.37 K, Crystal 1	492.63
313.44 K, Crystal 1	494.8
313.53 K, Crystal 1	493.56
313.67 K, Metastable crystal	515.91
313.94 K, Crystal 1	489.21
315.3 K, Crystal 1	503.49
315.37 K, Crystal 1	505.97
315.46 K, Crystal 1	503.18
315.56 K, Metastable crystal	532.05
315.87 K, Crystal 1	499.45
317.22 K, Crystal 1	514.97
317.29 K, Crystal 1	518.39
317.39 K, Crystal 1	512.18
317.42 K, Metastable crystal	550.67
317.78 K, Crystal 1	512.49
319.11 K, Crystal 1	529.25
319.18 K, Crystal 1	534.53
319.26 K, Metastable crystal	573.33
319.29 K, Crystal 1	524.29
319.67 K, Crystal 1	527.08
320.98 K, Crystal 1	545.71
321.05 K, Crystal 1	553.47
321.06 K, Metastable crystal	600.03
321.17 K, Crystal 1	538.26
321.53 K, Crystal 1	544.77
322.82 K, Crystal 1	565.88
322.82 K, Metastable crystal	633.24
322.89 K, Crystal 1	575.51
323.03 K, Crystal 1	555.95
323.37 K, Crystal 1	566.5
324.53 K, Metastable crystal	675.15
324.63 K, Crystal 1	590.72
324.69 K, Crystal 1	602.51
324.85 K, Crystal 1	578.61
325.17 K, Crystal 1	593.51
326.19 K, Metastable crystal	727.92
326.41 K, Crystal 1	621.45
326.45 K, Crystal 1	635.42
326.64 K, Crystal 1	607.48
326.92 K, Crystal 1	628.28
328.13 K, Crystal 1	660.56
328.17 K, Crystal 1	676.7
328.38 K, Crystal 1	644.42
328.62 K, Crystal 1	675.15
329.79 K, Crystal 1	710.85
329.82 K, Crystal 1	728.23
330.07 K, Crystal 1	691.29
330.24 K, Crystal 1	740.02
340.93 K, Metastable crystal	542.91
342.74 K, Crystal 1	648.45
342.82 K, Liquid	542.91
343.34 K, Crystal 1	571.47
343.81 K, Crystal 1	550.05
343.97 K, Liquid	543.84
344.54 K, Liquid	545.4
344.72 K, Liquid	544.77
345.34 K, Liquid	544.46
346.06 K, Liquid	544.77
346.43 K, Liquid	546.33
346.46 K, Liquid	546.64
346.61 K, Liquid	546.02
347.35 K, Liquid	545.71
348.14 K, Liquid	546.02
348.31 K, Liquid	547.57
348.49 K, Liquid	547.26
348.72 K, Liquid	547.57
348.77 K, Liquid	547.57
350.2 K, Liquid	549.43
350.6 K, Liquid	549.12
350.64 K, Liquid	549.12
352.08 K, Liquid	550.98
352.48 K, Liquid	550.36
352.5 K, Liquid	550.36
353.97 K, Liquid	552.22
354.36 K, Liquid	551.6
354.37 K, Liquid	551.91
355.86 K, Liquid	553.47
356.24 K, Liquid	553.16
356.25 K, Liquid	553.16
357.74 K, Liquid	555.02
358.11 K, Liquid	554.71
358.12 K, Liquid	554.71
359.64 K, Liquid	556.26
359.97 K, Liquid	555.95
360 K, Liquid	555.95
361.53 K, Liquid	557.81
361.84 K, Liquid	557.5
361.88 K, Liquid	557.5
363.42 K, Liquid	559.05
363.75 K, Liquid	558.74
365.3 K, Liquid	560.3
365.62 K, Liquid	559.98
367.19 K, Liquid	561.85
367.5 K, Liquid	561.54
